Assay results reported in ChEMBL document CHEMBL5584301, “Radioactive ADME Demonstrates ARV-110's High Druggability Despite Low Oral Bioavailability” (J Med Chem, 2024).
Active and inactive are the calls of the source. No cut-off for these calls is given here.

How the values were obtained:
[1] = Drug recovery in Long-Evans rat eye at 45 mg/kg, po measured for 72 hrs by UHPLC analysis; type: ADME, organism-based; conditions: in vivo
[2] = Drug recovery in female Sprague-Dawley rat feces at 45 mg/kg, po measured upto 48 hrs by UHPLC analysis; type: ADME, organism-based; conditions: faeces, read-out: Drug recovery
[3] = Drug metabolism in Long-Evans rat at 45 mg/kg, po by UHPLC-HR-MS analysis; type: ADME, organism-based; conditions: in vivo
[4] = Drug recovery in male Sprague-Dawley rat urine at 45 mg/kg, po measured upto 96 hrs by UHPLC analysis; type: ADME, organism-based; conditions: read-out: Drug recovery
[5] = Drug distribution in BALB/c mouse liver at 0.5 mg/kg, po by QWBA analysis; type: ADME, organism-based; conditions: in vivo
[6] = Cmax in C57BL/6J mouse uveal tract at 0.5 mg/kg, po measured at 168 hrs by QWBA analysis; type: ADME, organism-based; conditions: in vivo
[7] = Cmax in BALB/c nude mouse at 0.5 mg/kg, po measured at 48 hrs; type: ADME, organism-based; conditions: in vivo
[8] = Drug recovery in male Sprague-Dawley rat feces at 45 mg/kg, po measured upto 48 hrs by UHPLC analysis; type: ADME, organism-based; conditions: faeces, read-out: Drug recovery
[9] = Drug distribution in BALB/c mouse digestive tract at 0.5 mg/kg, po by QWBA analysis; type: ADME, organism-based; conditions: in vivo
[10] = Drug distribution in BALB/c mouse harderian gland at 0.5 mg/kg, po by QWBA analysis; type: ADME, organism-based; conditions: in vivo
[11] = Drug distribution in BALB/c mouse kidney at 0.5 mg/kg, po by QWBA analysis; type: ADME, organism-based; conditions: in vivo
[12] = AUC (0 to t ) in C57BL/6J mouse uveal tract at 0.5 mg/kg, po measured at 168 hrs by QWBA analysis; type: ADME, organism-based; conditions: in vivo
[13] = Cmax in C57BL/6J mouse eye at 0.5 mg/kg, po measured at 168 hrs by QWBA analysis; type: ADME, organism-based; conditions: in vivo
[14] = Drug recovery in female Sprague-Dawley rat urine at 45 mg/kg, po measured upto 96 hrs by UHPLC analysis; type: ADME, organism-based; conditions: read-out: Drug recovery
[15] = Drug recovery in female Sprague-Dawley rat bile duct at 45 mg/kg, po measured upto 72 hrs by UHPLC analysis; type: ADME, organism-based; conditions: read-out: Drug recovery
[16] = Drug recovery in male Sprague-Dawley rat bile duct at 45 mg/kg, po measured upto 72 hrs by UHPLC analysis; type: ADME, organism-based; conditions: read-out: Drug recovery
[17] = Cmax in BALB/c nude mouse at 0.5 mg/kg, po measured at 6 hrs; type: ADME, organism-based; conditions: in vivo
[18] = Ratio of drug exposure in pigmented skin to plasma of C57BL/6J mouse at 0.5 mg/kg, po; type: ADME, organism-based; conditions: pigmented skin and plasma
[19] = Ratio of drug exposure in tumor to plasma of BALB/c mouse at 0.5 mg/kg, po; type: ADME, organism-based; conditions: tumor and plasma
[20] = Cmax in C57BL/6J mouse harderian gland at 0.5 mg/kg, po measured at 48 hrs by QWBA analysis; type: ADME, organism-based; conditions: in vivo
[21] = Cmax in Sprague-Dawley rat at 22.5 mg/kg, po by LSC analysis; type: ADME, organism-based; conditions: in vivo
[22] = Volume of distribution at steady state in Sprague-Dawley rat at 22.5 mg/kg, iv by LSC analysis; type: ADME, organism-based; conditions: in vivo
[23] = Stability in rat plasma measured after 2 hrs by LC-MS/MS analysis; type: ADME, cell-free
DU-145 = experiment: Antitumor activity against human DU-145 cells xenografted in BALB/c nude mouse assessed as reduction in tumor size at 0.5 mg/kg measured daily for 14 days; type: functional, organism-based; conditions: time 14.0 day
[24] = Tmax in Sprague-Dawley rat at 45 mg/kg, po by LSC analysis; type: ADME, organism-based; conditions: in vivo
[25] = Half life in Sprague-Dawley rat at 22.5 mg/kg, po with free access to food and water before administration by LSC analysis; type: ADME, organism-based; conditions: in vivo
[26] = Drug recovery in Sprague-Dawley rat feces at 45 mg/kg, po measured over 168 hrs by UHPLC analysis; type: ADME, organism-based; conditions: faeces, read-out: Drug recovery
[27] = Drug recovery in Sprague-Dawley rat bile duct at 45 mg/kg, po measured over 72 hrs by UHPLC analysis; type: ADME, organism-based; conditions: read-out: Drug recovery
[28] = AUC (0 to infinity) in Sprague-Dawley rat at 22.5 mg/kg, po with free access to food and water before administration by LSC analysis; type: ADME, organism-based; conditions: in vivo
[29] = Oral bioavailability in Sprague-Dawley rat at 22.5 mg/kg with free access to food and water before administration by LSC analysis; type: ADME, organism-based; conditions: in vivo
[30] = AUC (0 to t) in Sprague-Dawley rat at 45 mg/kg, po by LSC analysis; type: ADME, organism-based; conditions: in vivo
[31] = Stability in rat plasma assessed as drug degradation measured after 2 hrs by LC-MS/MS analysis; type: ADME, cell-free
[32] = AUC (0 to t) in Sprague-Dawley rat at 22.5 mg/kg, po with free access to food and water before administration by LSC analysis; type: ADME, organism-based; conditions: in vivo
[33] = AUC (0 to t) in Sprague-Dawley rat at 22.5 mg/kg, po by LSC analysis; type: ADME, organism-based; conditions: in vivo
[34] = Oral bioavailability in Sprague-Dawley rat at 22.5 mg/kg by LSC analysis; type: ADME, organism-based; conditions: in vivo
Melanin [35] = experiment: Binding affinity to Melanin (unknown origin) assessed as binding ratio at 10 microg/ml measured for 2 hrs; conditions: dose 10.0 µg/ml
[36] = AUC (0 to infinity) in Sprague-Dawley rat at 45 mg/kg, po by LSC analysis; type: ADME, organism-based; conditions: in vivo
[37] = Stability in phosphate buffer at 1 uM; type: physicochemical
Melanin [38] = experiment: Binding affinity to Melanin (unknown origin) assessed as binding ratio at 0.1 microg/ml measured for 2 hrs; conditions: dose 0.1 µg/ml
[39] = Drug recovery in Sprague-Dawley rat urine at 45 mg/kg, po measured over 168 hrs by UHPLC analysis; type: ADME, organism-based; conditions: read-out: Drug recovery
[40] = Half life in Sprague-Dawley rat at 22.5 mg/kg, po by LSC analysis; type: ADME, organism-based; conditions: in vivo
[41] = Half life in Sprague-Dawley rat at 45 mg/kg, po by LSC analysis; type: ADME, organism-based; conditions: in vivo
[42] = Cmax in Sprague-Dawley rat at 45 mg/kg, po by LSC analysis; type: ADME, organism-based; conditions: in vivo
[43] = Tmax in Sprague-Dawley rat at 22.5 mg/kg, po by LSC analysis; type: ADME, organism-based; conditions: in vivo
[44] = Cmax in Sprague-Dawley rat at 22.5 mg/kg, po with free access to food and water before administration by LSC analysis; type: ADME, organism-based; conditions: in vivo
[45] = Tmax in Sprague-Dawley rat at 22.5 mg/kg, po with free access to food and water before administration by LSC analysis; type: ADME, organism-based; conditions: in vivo
[46] = AUC (0 to infinity) in Sprague-Dawley rat at 22.5 mg/kg, po by LSC analysis; type: ADME, organism-based; conditions: in vivo
Melanin [47] = experiment: Binding affinity to Melanin (unknown origin) assessed as binding ratio at 1 microg/ml measured for 2 hrs; conditions: dose 1.0 µg/ml
[48] = Stability in rat plasma assessed as drug hydrolysis measured after 2 hrs by LC-MS/MS analysis; type: ADME, cell-free
[49] = Oral bioavailability in Sprague-Dawley rat at 45 mg/kg by LSC analysis; type: ADME, organism-based; conditions: in vivo

## N#Cc1ccc(O[C@H]2CC[C@H](NC(=O)c3ccc(N4CCC(CN5CCN(c6cc7c(cc6F)[14C](=O)N(C6CCC(=O)NC6=O)[14C]7=O)CC5)CC4)nn3)CC2)cc1Cl (stereo not given in full)
[1]
  Drug recovery: 55.17%
[2]
  dose excreted at 48 h: 88%
[3]
  Drug metabolism: Metabolite_Detected
[4]
  dose excreted at 96 h: 2.51%
[5]
  Drug uptake: Active
[6]
  Cmax: 9621 ngequiv/g
[7]
  Cmax: 944 ngequiv/g
[8]
  dose excreted at 48 h: 92%
[9]
  Drug uptake: Active
[10]
  Drug uptake: Active
[11]
  Drug uptake: Active
[12]
  AUCt: 2717032 ng·h/g
[13]
  Cmax: 3185 ngequiv/g
[14]
  dose excreted at 96 h: 4.25%
[15]
  dose excreted at 72 h: 4.49%
[16]
  dose excreted at 72 h: 4.55%
[17]
  Cmax: 3165 ngequiv/g
[18]
  Kp: 1.52
[19]
  Kp: 3.99
[20]
  Cmax: 2950 ngequiv/g

## N#Cc1ccc(O[C@H]2CC[C@H](NC(=O)c3ccc(N4CCC(CN5CCN(c6cc7c(cc6F)C(=O)N(C6CCC(=O)NC6=O)C7=O)CC5)CC4)nn3)CC2)cc1Cl (stereo not given in full) [BAVDEGALUTAMIDE]
[21]
  Cmax: 448 ng/mL
[22]
  Vdss: 2.04 L/kg
[23]
  Stability: Unstable
DU-145
  Activity: Active
[24]
  Tmax: 5.5 h
[25]
  t1/2: 14.8 h
[26]
  dose excreted at 168 h: 90%
[27]
  dose excreted at 72 h: 4.54%
[28]
  AUC: 23274 ng·h/mL
[29]
  F: 20.97%
[30]
  AUCt: 12345 ng·h/mL
[31]
  Stability: Stable
[32]
  AUCt: 23022 ng·h/mL
[33]
  AUCt: 11740 ng·h/mL
[34]
  F: 10.75%
Melanin [35]
  inhibition: 82.2%
[36]
  AUC: 12515 ng·h/mL
[37]
  Stability: Stable
Melanin [38]
  inhibition: 91%
[39]
  dose excreted at 168 h: 3.38%
[40]
  t1/2: 15.4 h
[41]
  t1/2: 15.9 h
[42]
  Cmax: 490 ng/mL
[43]
  Tmax: 7 h
[44]
  Cmax: 842 ng/mL
[45]
  Tmax: 8.5 h
[46]
  AUC: 11881 ng·h/mL
Melanin [47]
  inhibition: 90.1%
[48]
  Stability: Stable
[49]
  F: 5.62%
